What was measured:
human PARG [1] = molecular target: human PARG (Homo sapiens, UniProt Q86W56, E756N); experiment: fluorescence polarization direct binding
human PARG [2] = molecular target: human PARG (Homo sapiens, UniProt Q86W56, E755N); experiment: fluorescence polarization direct binding
Chain of human PARG (Homo sapiens, UniProt Q86W56, E755N) (Q86W56 whole entry E755N): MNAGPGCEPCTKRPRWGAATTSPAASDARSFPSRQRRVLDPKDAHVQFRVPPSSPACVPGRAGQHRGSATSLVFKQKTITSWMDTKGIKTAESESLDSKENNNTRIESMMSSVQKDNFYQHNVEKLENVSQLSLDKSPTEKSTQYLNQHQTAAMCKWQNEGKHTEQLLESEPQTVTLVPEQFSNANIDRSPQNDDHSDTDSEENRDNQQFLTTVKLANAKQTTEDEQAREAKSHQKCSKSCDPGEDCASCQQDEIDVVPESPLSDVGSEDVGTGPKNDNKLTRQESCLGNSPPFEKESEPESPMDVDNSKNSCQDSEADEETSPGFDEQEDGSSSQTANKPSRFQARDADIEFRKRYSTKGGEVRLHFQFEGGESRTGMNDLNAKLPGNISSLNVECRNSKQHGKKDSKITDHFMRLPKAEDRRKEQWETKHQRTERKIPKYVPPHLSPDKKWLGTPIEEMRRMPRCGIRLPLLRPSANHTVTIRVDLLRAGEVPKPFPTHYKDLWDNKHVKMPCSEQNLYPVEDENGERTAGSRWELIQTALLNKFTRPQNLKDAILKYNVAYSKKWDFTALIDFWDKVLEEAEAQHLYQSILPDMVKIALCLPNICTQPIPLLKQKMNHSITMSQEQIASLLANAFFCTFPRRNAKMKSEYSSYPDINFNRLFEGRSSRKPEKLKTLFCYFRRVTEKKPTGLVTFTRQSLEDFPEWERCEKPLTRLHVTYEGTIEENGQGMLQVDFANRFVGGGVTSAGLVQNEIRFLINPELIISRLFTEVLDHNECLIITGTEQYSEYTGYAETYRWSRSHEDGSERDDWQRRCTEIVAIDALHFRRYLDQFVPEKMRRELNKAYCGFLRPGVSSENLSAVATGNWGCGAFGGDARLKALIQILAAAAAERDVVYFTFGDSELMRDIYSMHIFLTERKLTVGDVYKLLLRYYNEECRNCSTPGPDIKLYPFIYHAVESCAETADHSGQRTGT

Chain of human PARG (Homo sapiens, UniProt Q86W56, E756N) (Q86W56 whole entry E756N): as the sequence (Q86W56 whole entry E755N) above, with N755E, E756N counted along it

For Cy3 ADP-ribose dimer [compound 22], the Kd (human PARG [1]) was 83 ± 7 nM and the Kd (human PARG [2]) was 208 ± 14 nM.

From paper PMC6089346 (Journal of the American Chemical Society, 2015)
